Laboratory results reported in the supplement of paper PMC10307832.

How the values were obtained:
Test in all cases: relative viability (nuclei count vs DMSO), 5 days (fraction); higher = more cells survive
[1] = compound: CC1=CC(=CC=C1)NC2=NC(=CS2)C3=CC=NC=C3
In short: (§1)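 Nuclei counted with MetaXpress define viability as the ratio of treated to vehicle wells, given as a median across plates. The lung cancer cell lines were in 1536-well plates, pinned with five √10-spaced library-drug doses and imaged at 4× after 5 days and Hoechst staining. Plates passed with control CV below 25% and at least one doubling.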

Masitinib = compound: Cc1ccc(NC(=O)c2ccc(CN3CCN(C)CC3)cc2)cc1Nc1nc(-c2cccnc2)cs1 [Masitinib]
In short: as §1

[2] = compound: CC1=CC(=CC=C1)NC2=NC(=CS2)C3=CC=NC=C3 + Cc1nc(NC(=O)N2CCC[C@H]2C(N)=O)sc1-c1ccnc(C(C)(C)C(F)(F)F)c1 [Alpelisib] (partner 2 µM)
In short: (§2)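 Lung cancer cell lines were seeded in 1536-well plates and dosed by pin tool the next day, with either a single drug or a fixed anchor-drug dose combined with five library-drug doses (not always all listed) spaced in √10 steps. Five days later, one step fixed the cells and stained their nuclei (final 0.05% Triton X-100, 1% formaldehyde, 1 ug/ml Hoechst), and nuclei were counted on 4× images. Relative viability is the nuclei count in treated wells divided by the count in vehicle wells, and each value is the median of duplicate plates.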

Masitinib + Pemetrexed = compound: Cc1ccc(NC(=O)c2ccc(CN3CCN(C)CC3)cc2)cc1Nc1nc(-c2cccnc2)cs1 [Masitinib] + Nc1nc2[nH]cc(CCc3ccc(C(=O)N[C@@H](CCC(=O)O)C(=O)O)cc3)c2c(=O)[nH]1 [Pemetrexed] (partner 0.2 µM)
In short: as §2

## COR-L23
[1]; 0.08 µM
  relative viability: 0.981
[1]; 0.253 µM
  relative viability: 0.986
[1]; 0.8 µM
  relative viability: 0.926
[1]; 2.53 µM
  relative viability: 0.877
[1]; 8 µM
  relative viability: 0.989
Masitinib; 0.01 µM
  relative viability: 1.02
Masitinib; 0.03162 µM
  relative viability: 0.969
Masitinib; 0.1 µM
  relative viability: 1.06
Masitinib; 0.3162 µM
  relative viability: 0.984
Masitinib; 1 µM
  relative viability: 0.981
[2]; first compound 0.08 µM
  relative viability: 0.607
[2]; first compound 0.253 µM
  relative viability: 0.609
[2]; first compound 0.8 µM
  relative viability: 0.508
[2]; first compound 2.53 µM
  relative viability: 0.611
[2]; first compound 8 µM
  relative viability: 0.71
Masitinib + Pemetrexed; first compound 0.01 µM
  relative viability: 0.214
Masitinib + Pemetrexed; first compound 0.03162 µM
  relative viability: 0.227
Masitinib + Pemetrexed; first compound 0.1 µM
  relative viability: 0.194
Masitinib + Pemetrexed; first compound 0.3162 µM
  relative viability: 0.205
Masitinib + Pemetrexed; first compound 1 µM
  relative viability: 0.196

## COR-L 105
[1]; 0.08 µM
  relative viability: 0.742
[1]; 0.253 µM
  relative viability: 0.901
[1]; 0.8 µM
  relative viability: 0.818
[1]; 2.53 µM
  relative viability: 0.776
[1]; 8 µM
  relative viability: 0.667
Masitinib; 0.01 µM
  relative viability: 0.944
Masitinib; 0.03162 µM
  relative viability: 0.894
Masitinib; 0.1 µM
  relative viability: 0.976
Masitinib; 0.3162 µM
  relative viability: 0.856
Masitinib; 1 µM
  relative viability: 0.897
[2]; first compound 0.08 µM
  relative viability: 0.956
[2]; first compound 0.253 µM
  relative viability: 0.794
[2]; first compound 0.8 µM
  relative viability: 0.869
[2]; first compound 2.53 µM
  relative viability: 0.773
[2]; first compound 8 µM
  relative viability: 0.715
Masitinib + Pemetrexed; first compound 0.01 µM
  relative viability: 1.04
Masitinib + Pemetrexed; first compound 0.03162 µM
  relative viability: 1.09
Masitinib + Pemetrexed; first compound 0.1 µM
  relative viability: 1.1
Masitinib + Pemetrexed; first compound 0.3162 µM
  relative viability: 0.989
Masitinib + Pemetrexed; first compound 1 µM
  relative viability: 0.997

## EKVX
[1]; 0.08 µM
  relative viability: 0.884
[1]; 0.253 µM
  relative viability: 0.933
[1]; 0.8 µM
  relative viability: 0.795
[1]; 2.53 µM
  relative viability: 0.89
[1]; 8 µM
  relative viability: 0.82
Masitinib; 0.01 µM
  relative viability: 0.627
Masitinib; 0.03162 µM
  relative viability: 0.86
Masitinib; 0.1 µM
  relative viability: 0.805
Masitinib; 0.3162 µM
  relative viability: 0.717
Masitinib; 1 µM
  relative viability: 0.927
[2]; first compound 0.08 µM
  relative viability: 0.764
[2]; first compound 0.253 µM
  relative viability: 0.812
[2]; first compound 0.8 µM
  relative viability: 0.824
[2]; first compound 2.53 µM
  relative viability: 0.643
[2]; first compound 8 µM
  relative viability: 0.656
Masitinib + Pemetrexed; first compound 0.01 µM
  relative viability: 0.375
Masitinib + Pemetrexed; first compound 0.03162 µM
  relative viability: 0.511
Masitinib + Pemetrexed; first compound 0.1 µM
  relative viability: 0.466
Masitinib + Pemetrexed; first compound 1 µM
  relative viability: 0.35

## EMC-BAC-2
[1]; 0.08 µM
  relative viability: 0.834
[1]; 0.253 µM
  relative viability: 0.712
[1]; 0.8 µM
  relative viability: 1.01
[1]; 2.53 µM
  relative viability: 0.838
[1]; 8 µM
  relative viability: 0.885
Masitinib; 0.01 µM
  relative viability: 0.78
Masitinib; 0.03162 µM
  relative viability: 0.784
Masitinib; 0.1 µM
  relative viability: 0.893
Masitinib; 0.3162 µM
  relative viability: 0.937
Masitinib; 1 µM
  relative viability: 0.927
[2]; first compound 0.08 µM
  relative viability: 0.66
[2]; first compound 0.253 µM
  relative viability: 0.747
[2]; first compound 0.8 µM
  relative viability: 0.702
[2]; first compound 2.53 µM
  relative viability: 0.779
[2]; first compound 8 µM
  relative viability: 0.719
Masitinib + Pemetrexed; first compound 0.01 µM
  relative viability: 0.435
Masitinib + Pemetrexed; first compound 0.03162 µM
  relative viability: 0.453
Masitinib + Pemetrexed; first compound 0.1 µM
  relative viability: 0.447
Masitinib + Pemetrexed; first compound 0.3162 µM
  relative viability: 0.429
Masitinib + Pemetrexed; first compound 1 µM
  relative viability: 0.328

## EPLC-272H
[1]; 0.08 µM
  relative viability: 0.856
[1]; 0.253 µM
  relative viability: 0.793
[1]; 0.8 µM
  relative viability: 0.813
[1]; 2.53 µM
  relative viability: 0.732
[1]; 8 µM
  relative viability: 0.958
Masitinib; 0.01 µM
  relative viability: 0.887
Masitinib; 0.03162 µM
  relative viability: 0.788
Masitinib; 0.1 µM
  relative viability: 0.962
Masitinib; 0.3162 µM
  relative viability: 0.866
Masitinib; 1 µM
  relative viability: 0.815
[2]; first compound 0.08 µM
  relative viability: 0.894
[2]; first compound 0.8 µM
  relative viability: 0.927
[2]; first compound 8 µM
  relative viability: 0.869
Masitinib + Pemetrexed; first compound 0.01 µM
  relative viability: 0.32
Masitinib + Pemetrexed; first compound 0.1 µM
  relative viability: 0.348
Masitinib + Pemetrexed; first compound 0.3162 µM
  relative viability: 0.399
Masitinib + Pemetrexed; first compound 1 µM
  relative viability: 0.249

## H3255
[1]; 0.08 µM
  relative viability: 0.916
[1]; 0.253 µM
  relative viability: 0.931
[1]; 0.8 µM
  relative viability: 0.984
[1]; 2.53 µM
  relative viability: 0.934
[1]; 8 µM
  relative viability: 0.903
Masitinib; 0.01 µM
  relative viability: 0.743
Masitinib; 0.03162 µM
  relative viability: 0.986
Masitinib; 0.1 µM
  relative viability: 0.766
Masitinib; 0.3162 µM
  relative viability: 0.784
Masitinib; 1 µM
  relative viability: 0.906
[2]; first compound 0.08 µM
  relative viability: 0.582
[2]; first compound 0.253 µM
  relative viability: 0.713
[2]; first compound 0.8 µM
  relative viability: 0.72
[2]; first compound 2.53 µM
  relative viability: 0.654
[2]; first compound 8 µM
  relative viability: 0.594
Masitinib + Pemetrexed; first compound 0.01 µM
  relative viability: 0.57
Masitinib + Pemetrexed; first compound 0.03162 µM
  relative viability: 0.59
Masitinib + Pemetrexed; first compound 0.1 µM
  relative viability: 0.583
Masitinib + Pemetrexed; first compound 0.3162 µM
  relative viability: 0.54
Masitinib + Pemetrexed; first compound 1 µM
  relative viability: 0.573

## HARA
[1]; 0.08 µM
  relative viability: 0.741
[1]; 0.253 µM
  relative viability: 0.975
[1]; 0.8 µM
  relative viability: 0.815
[1]; 2.53 µM
  relative viability: 0.685
[1]; 8 µM
  relative viability: 0.735
Masitinib; 0.01 µM
  relative viability: 0.844
Masitinib; 0.03162 µM
  relative viability: 0.874
Masitinib; 0.1 µM
  relative viability: 0.772
Masitinib; 0.3162 µM
  relative viability: 0.742
Masitinib; 1 µM
  relative viability: 0.909
[2]; first compound 0.08 µM
  relative viability: 0.621
[2]; first compound 0.253 µM
  relative viability: 0.513
[2]; first compound 0.8 µM
  relative viability: 0.596
[2]; first compound 2.53 µM
  relative viability: 0.724
[2]; first compound 8 µM
  relative viability: 0.542
Masitinib + Pemetrexed; first compound 0.01 µM
  relative viability: 0.217
Masitinib + Pemetrexed; first compound 0.03162 µM
  relative viability: 0.324
Masitinib + Pemetrexed; first compound 0.1 µM
  relative viability: 0.24
Masitinib + Pemetrexed; first compound 1 µM
  relative viability: 0.279

## HCC-15
[1]; 0.08 µM
  relative viability: 0.916
[1]; 0.253 µM
  relative viability: 0.936
[1]; 0.8 µM
  relative viability: 1.02
[1]; 2.53 µM
  relative viability: 0.915
[1]; 8 µM
  relative viability: 0.807
Masitinib; 0.01 µM
  relative viability: 0.774
Masitinib; 0.03162 µM
  relative viability: 0.983
Masitinib; 0.1 µM
  relative viability: 0.836
Masitinib; 0.3162 µM
  relative viability: 0.962
Masitinib; 1 µM
  relative viability: 0.959
[2]; first compound 0.08 µM
  relative viability: 0.792
[2]; first compound 0.253 µM
  relative viability: 0.699
[2]; first compound 0.8 µM
  relative viability: 0.845
[2]; first compound 2.53 µM
  relative viability: 0.841
[2]; first compound 8 µM
  relative viability: 0.879
Masitinib + Pemetrexed; first compound 0.01 µM
  relative viability: 0.226
Masitinib + Pemetrexed; first compound 0.03162 µM
  relative viability: 0.24
Masitinib + Pemetrexed; first compound 0.1 µM
  relative viability: 0.212
Masitinib + Pemetrexed; first compound 0.3162 µM
  relative viability: 0.203
Masitinib + Pemetrexed; first compound 1 µM
  relative viability: 0.226
